Measured values taken from US4879381A, “7-(substituted or unsubstituted amino) 3-substituted methyl-^3 cephem-4-carboxylic acid” (Toyoma Chemical Company, Ltd., priority 1980, dated 1989).
Counter-ions that a name gives are not always drawn. Like-named read-outs stand apart in the source and are kept apart here.

How the values were obtained:
in vivo = conditions: mouse, intravenous, mice
Text: Three test compounds were introvenously administered to mice (ICR, male, 4 weeks old) to test their acute toxicities.

Pro. mirabilis T-100 = assay: Antibacterial activity (MIC, agar plate); format: cell-based; conditions: Proteus mirabilis, T100, 10^4 cells/plate, 37° C., 20 hours, read-out: MIC
Procedure: (§1) According to the standard method of the Japanese Chemotherapeutic Society [Chemotherapy, Vol. 23, Pages 1-2 (1975)], a culture obtained by cultivating bacteria in Heart Infusion broth (manufactured by Eken Kagakusha) at 37° C. for 20 hours was inoculated into a Heart Infusion agar medium (manufactured by Eiken Kagakusha) and cultivated at 37° C. for 20 hours, after which the growth of bacteria was examined visually. The minimum inhibitory concentration at which the bacterial growth was inhibited was taken as MIC (μg/ml). The amount of the inoculated bacteria was 10^4 cells/plate (10^6 cells/ml).

Ent. cloacae IID977 = assay: Antibacterial activity (MIC, agar plate); format: cell-based; conditions: Enterobacter cloacae, 10^4 cells/plate, 37° C., 20 hours, read-out: MIC
Procedure: as §1

Kl. pneumoniae Y-50 = assay: Antibacterial activity (MIC, agar plate); format: cell-based; conditions: Klebsiella pneumoniae, Y50, 10^4 cells/plate, 37° C., 20 hours, read-out: MIC
Procedure: as §1

Aci. calcoaceticus A-6 = assay: Antibacterial activity (MIC, agar plate); format: cell-based; conditions: Acinetobacter calcoaceticus, A6, 10^4 cells/plate, 37° C., 20 hours, read-out: MIC
Procedure: as §1

Pro. mirabilis T-111 = assay: Antibacterial activity (MIC, agar plate); format: cell-based; conditions: Proteus mirabilis, T111, 20 h
Procedure: as §1

Ser. marcescens IID620 = assay: Antibacterial activity (MIC, agar plate); format: cell-based; conditions: Serratia marcescens, IID620, 20 h
Procedure: as §1

[1] = system: E. coli TK3 (Penicillinase-producing bacteria); assay: Antibacterial activity (MIC, agar plate); format: cell-based; conditions: Escherichia coli; E. coli TK3 (penicillinase-producing); 10^4 cells/plate, 37° C., 20 hours; read-out: MIC
Procedure: as §1

Klebsiella spp Y-72 = assay: Antibacterial activity (MIC, agar plate); format: cell-based
Procedure: as §1

Kl. pneumoniae Y-41 = assay: Antibacterial activity (MIC, agar plate); format: cell-based; conditions: Klebsiella pneumoniae, Y41; Kl. pneumoniae Y-41; 10^4 cells/plate, 37° C., 20 hours; read-out: MIC
Procedure: as §1

Al. faecalis B-1 = assay: Antibacterial activity (MIC, agar plate); format: cell-based; conditions: Alcaligenes faecalis
Procedure: as §1

Pro. morganii T-216 = assay: Antibacterial activity (MIC, agar plate); format: cell-based; conditions: Morganella morganii, T216, 20 h
Procedure: as §1

[2] = system: Pro. vulgaris GN76 (Cephalosporinase-producing bacteria); assay: Antibacterial activity (MIC, agar plate); format: cell-based; conditions: Proteus vulgaris; Pro. vulgaris GN76 (cephalosporinase-producing); 10^4 cells/plate, 37° C., 20 hours; read-out: MIC
Procedure: as §1

E. coli NIHJ = assay: Antibacterial activity (MIC, agar plate, standard method of the Japanese Chemotherapeutic Society); format: cell-based; conditions: Escherichia coli, 10^4 cells/plate, 37° C., 20 hours, read-out: MIC
Procedure: as §1

Compound	LD50 (in vivo)	MIC (Pro. mirabilis T-100)	MIC (Ent. cloacae IID977)	MIC (Kl. pneumoniae Y-50)	MIC (Aci. calcoaceticus A-6)	MIC (Pro. mirabilis T-111)	MIC (Ser. marcescens IID620)	MIC [1]	MIC (Klebsiella spp Y-72; Y72, Klebsiella spp Y-72, 10^4 cells/plate, 37° C., 20 hours, read-out: MIC)	MIC (Kl. pneumoniae Y-41)	MIC (Al. faecalis B-1; B1, Al. faecalis B-1, 10^4 cells/plate, 37° C., 20 hours, read-out: MIC)	MIC (Pro. morganii T-216)	MIC [2]	MIC (E. coli NIHJ)	MIC (Klebsiella spp Y-72; Klebsiella, Y72, 20 h)	MIC (Al. faecalis B-1; B1, 20 h)
Cc1nnn(CC2=C(C(=O)O)N3C(=O)C(NC(=O)Cc4csc(N)n4)C3SC2)n1 (stereo not drawn)	> 3000 mg/kg	–	–	–	–	–	–	–	–	–	–	–	–	–	–	–
CO/N=C(\C(=O)NC1C(=O)N2C(C(=O)O)=C(Cc3ccc(O)cc3)CSC12)c1csc(N)n1 (stereo not drawn) [D, Trifluoroacetic acid salt of 7-[2-(2-aminothiazol-4-yl)-2-(syn)-methoxyiminoacetamido]-3-(4-hydroxybenzyl)-Δ^3-cephem-4-carboxylic acid]	–	≤ 0.1 µg/mL	25 µg/mL	0.2 µg/mL	6.25 µg/mL	0.78 µg/mL	3.13 µg/mL	1.56 µg/mL	6.25 µg/mL	0.78 µg/mL	25 µg/mL	0.78 µg/mL	1.56 µg/mL	≤ 0.1 µg/mL	–	–
Cc1nnn(CC2=C(C(=O)O)N3C(=O)C(NC(=O)/C(=N\O)c4csc(N)n4)C3SC2)n1 (stereo not drawn) [E, Trifluoroacetic acid salt of 7-[2-(2-aminothiazol-4-yl)-2-(syn)-hydroxyiminoacetamido]-3-(2-(5-methyl-1,2,3,4-tetrazolyl)methyl]-Δ^3-cephem-4-carboxylic acid]	–	≤ 0.1 µg/mL	6.25 µg/mL	≤ 0.1 µg/mL	50 µg/mL	0.39 µg/mL	3.13 µg/mL	0.78 µg/mL	–	0.2 µg/mL	–	≤ 0.1 µg/mL	6.25 µg/mL	≤ 0.1 µg/mL	3.13 µg/mL	3.13 µg/mL
